These molecules were tested against 229E Mpro (Human coronavirus 229E (HCoV-229E), UniProt P0C6X1) (assay: 229E Mpro activity). Settings: 229E Mpro EC50.
229E Mpro, sequence (P0C6X1 2966-3267 limits assumed): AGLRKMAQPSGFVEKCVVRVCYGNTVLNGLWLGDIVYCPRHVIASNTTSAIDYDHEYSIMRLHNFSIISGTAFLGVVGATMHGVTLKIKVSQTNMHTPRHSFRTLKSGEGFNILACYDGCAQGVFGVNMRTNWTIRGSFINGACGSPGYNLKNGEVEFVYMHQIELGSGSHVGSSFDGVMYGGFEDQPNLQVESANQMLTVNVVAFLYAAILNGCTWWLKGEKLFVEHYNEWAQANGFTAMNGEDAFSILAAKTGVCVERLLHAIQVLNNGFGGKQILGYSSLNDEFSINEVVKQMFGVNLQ
Format: biochemical
Procedure: Compounds are assayed using standard methods to assess compound activity and IC50. […] The assay buffer contains 20 mM of Tris-HCl (pH 7.3), 100 mM of NaCl, 1 mM of EDTA, 5mM of TCEP and 0.1% BSA.
Molecule `COc1cccc2[nH]c(C(=O)N3CC4(CC3C(=O)N[C@H](C#N)C[C@@H]3CCCNC3=O)CC(F)(F)C4)cc12` (single isomer, unassigned) [723 (Isomer 1)] has an EC50 of 10 to 30 µM.

Same assay, conditions: read-out: 229E Mpro EC50
In the case of `CC(C)(C)OC(=O)N1CCCCC12CCN(C(CC1CC1)C(=O)N[C@H](C#N)C[C@@H]1CCNC1=O)C2=O` (single isomer, unassigned) [473 (Isomer 2)], the EC50 is reported as > 30 µM. With `COc1cccc2[nH]c(C(=O)N[C@@H](CC3CC3)C(=O)N[C@H](C#N)C[C@@H]3CCCNC3=O)cc12` (single isomer, unassigned) [491 (Isomer 1)] the EC50 was < 2 µM. In the case of `COc1cccc2[nH]c(C(=O)N3C[C@H](OC)C[C@H]3C(=O)N[C@H](C#N)C[C@@H]3CCNC3=O)cc12` [Compound 407], the EC50 is reported as < 2 µM. Work on `COc1cccc2[nH]c(C(=O)N[C@H](C(=O)N[C@H](C#N)C[C@@H]3CCNC3=O)C3Cc4ccccc4C3)cc12` [Compound 149, N-[(1S)-2-[[(1S)-1-cyano-2-[(3S)-2-oxopyrrolidin-3-yl]ethyl]amino]-1-indan-2-yl-2-oxo-ethyl]-4-methoxy-1H-indole-2-carboxamide] yielded an EC50 of 2 to 10 µM. With `N#Cc1ccc2[nH]c(C(=O)N[C@@H](CC3CC3)C(=O)N[C@H](C#N)C[C@@H]3CCCNC3=O)cc2c1` [Compound 860] the EC50 was < 2 µM. `N#C[C@H](C[C@@H]1CCCNC1=O)NC(=O)[C@H](CC1CC1)NC(=O)c1[nH]c2cc(Br)ccc2c1F` [Compound 848, 6-bromo-N-[(1S)-2-[[(1S)-1-cyano-2-[(3S)-2-oxo-3-piperidyl]ethyl]amino]-1-(cyclopropylmethyl)-2-oxo-ethyl]-3-fluoro-1H-indole-2-carboxamide] was tested, and the EC50 was < 2 µM. With `COc1ccc(Cl)c2[nH]c(C(=O)N[C@@H](CC(C)(C)C)C(=O)N[C@H](C#N)C[C@@H]3CCNC3=O)cc12` [Compound 892] the EC50 was < 2 µM. For `CCCN1C(=N)C([C@H](C[C@@H]2CCNC2=O)NC(=O)[C@H](CC(C)C)NC(=O)c2cc3c(OC)cccc3[nH]2)OC1=O` (stereo partly drawn) [Compound 355, N-((2S)-1-(((1 S)-1-(4-imino-2-oxo-3-propyloxazolidin-5-yl)-2-((S)-2-oxopyrrolidin-3-yl)ethyl)amino)-4-methyl-1-oxopentan-2-yl)-4-methoxy-1H-indole-2-carboxamide], the EC50 was 2 to 10 µM. `N#C[C@H](C[C@@H]1CCNC1=O)NC(=O)[C@H](CC1CC1)NC(=O)c1cc2c(Cl)cccc2[nH]1` [Compound 647, 4-chloro-N-[(1S)-2-[[(1S)-1-cyano-2-[(3S)-2-oxopyrrolidin-3-yl]ethyl]amino]-1-(cyclopropylmethyl)-2-oxo-ethyl]-1H-indole-2-carboxamide] was tested, and the EC50 was < 2 µM. For `COc1cccc2[nH]c(C(=O)N[C@@H](CC(C)C)C(=O)N[C@H](/C=C/S(C)(=O)=O)C[C@@H]3CCNC3=O)cc12` [Compound 136, 4-methoxy-N-[(1S)-3-methyl-1-[[(E,1S)-3-methylsulfonyl-1-[[(3S)-2-oxopyrrolidin-3-yl]methyl]allyl]carbamoyl]butyl]-1H-indole-2-carboxamide], the EC50 was < 2 µM. `COc1cccc2[nH]c(C(=O)N3CC(C)(C)C[C@H]3C(=O)N[C@H](C#N)C[C@@H]3CCNC3=O)cc12` (single isomer, unassigned) [395 (Isomer 2)] was tested, and the EC50 was < 2 µM. In the case of `COc1cccc2[nH]c(C(=O)N[C@@H](CC3CC3)C(=O)N[C@@H](C#N)C[C@@H]3CCCNC3=O)cc12` (single isomer, unassigned) [491 (Isomer 2)], the EC50 is reported as > 30 µM. `COc1ccc2[nH]c(C(=O)N[C@@H](CC3CC3)C(=O)N[C@H](C#N)C[C@@H]3CCCNC3=O)cc2c1` [Compound 619, N-[(1S)-2-[[(1S)-1-cyano-2-[(3S)-2-oxo-3-piperidyl]ethyl]amino]-1-(cyclopropylmethyl)-2-oxo-ethyl]-5-methoxy-1H-indole-2-carboxamide] was tested, and the EC50 was < 2 µM. With `COc1cccc2[nH]c(C(=O)N3C[C@H](OC(C)(C)C)C[C@H]3C(=O)N[C@H](C#N)C[C@@H]3CCNC3=O)cc12` [Compound 165, (2S,4R)-4-(tert-butoxy)-N-((S)-1-cyano-2-((S)-2-oxopyrrolidin-3-yl)ethyl)-1-(4-methoxy-1H-indole-2-carbonyl)pyrrolidine-2-carboxamide] the EC50 was > 30 µM. With `COc1cccc2[nH]c(C(=O)N[C@@H](CC(C)C)C(=O)N[C@@H](C[C@@H]3CCNC3=O)C(C#N)Nc3ccccc3)cc12` (stereo partly drawn) [Compound 327, N-[(1S)-1-[[(1S)-2-anilino-2-cyano-1-[[(3S)-2-oxopyrrolidin-3-yl]methyl]ethyl]carbamoyl]-3-methyl-butyl]-4-methoxy-1H-indole-2-carboxamide] the EC50 was < 2 µM. With `COCCOCCOc1cccc2[nH]c(C(=O)N[C@@H](CC3CC3)C(=O)N[C@H](C#N)C[C@@H]3CCCNC3=O)cc12` [Compound 1057, N-[(1S)-2-[[(1S)-1-cyano-2-[(3S)-2-oxo-3-piperidyl]ethyl]amino]-1-(cyclopropylmethyl)-2-oxo-ethyl]-4-[2-(2-methoxyethoxy)ethoxy]-1H-indole-2-carboxamide] the EC50 was < 2 µM. With `COc1cccc2[nH]c(C(=O)N3CC4(CCOCC4)C[C@H]3C(=O)N[C@H](C#N)C[C@@H]3CCNC3=O)cc12` [Compound 387, N-((S)-1-cyano-2-((S)-2-oxopyrrolidin-3-yl)ethyl)-2-(4-methoxy-1H-indole-2-carbonyl)-8-oxa-2-azaspiro[4.5]decane-3-carboxamide] the EC50 was > 30 µM. With `COc1ccc(Cl)c2[nH]c(C(=O)N[C@@H](CC3CC3)C(=O)N[C@H](C#N)C[C@@H]3CCCNC3=O)cc12` [Compound 898, 7-chloro-N-[(1S)-2-[[(1S)-1-cyano-2-[(3S)-2-oxo-3-piperidyl]ethyl]amino]-1-(cyclopropylmethyl)-2-oxo-ethyl]-4-methoxy-1H-indole-2-carboxamide] the EC50 was < 2 µM. `N#C[C@H](C[C@@H]1CCNC1=O)NC(=O)[C@@H](CC1CC1)n1cccc(NCC(F)(F)F)c1=O` (single isomer, unassigned) [467 (Isomer 2)] was tested, and the EC50 was > 30 µM. With `COc1cccc2[nH]c(C(=O)N[C@@H](CC(C)C)C(=O)NC(C#N)Cc3n[nH]c4ccccc34)cc12` (mixture of isomers) [Compound 245, N-[(1S)-1-[[1-cyano-2-(1H-indazol-3-yl)ethyl]carbamoyl]-3-methyl-butyl]-4-methoxy-1H-indole-2-carboxamide] the EC50 was > 30 µM. For `N#C[C@H](C[C@@H]1CCCNC1=O)NC(=O)[C@@H](CC1CC1)NC(=O)c1cc2cccc(Cl)c2[nH]1` [Compound 639A, 7-Chloro-N-[(1R)-2-[[(1S)-1-cyano-2-[(3S)-2-oxo-3-piperidyl]ethyl]amino]-1-(cyclopropylmethyl)-2-oxo-ethyl]-1H-indole-2-carboxamide], the EC50 was < 2 µM. For `CC(C)(C)C[C@H](NC(=O)c1cc2c(Cl)cc(Cl)cc2[nH]1)C(=O)N[C@H](C#N)C[C@@H]1CCCNC1=O` [Compound 795, 4,6-dichloro-N-((S)-1-(((S)-1-cyano-2-((S)-2-oxopiperidin-3-yl)ethyl)amino)-4,4-dimethyl-1-oxopentan-2-yl)-1H-indole-2-carboxamide], the EC50 was < 2 µM. With `CC(C)(C)C[C@H](NC(=O)c1cc2c(Cl)cccc2[nH]1)C(=O)N[C@H](C#N)C[C@@H]1CCCNC1=O` [Compound 793, 4-chloro-N-[(1S)-1-[[(1S)-1-cyano-2-[(3S)-2-oxo-3-piperidyl]ethyl]carbamoyl]-3,3-dimethyl-butyl]-1H-indole-2-carboxamide] the EC50 was < 2 µM. `CCO[C@@H]1C[C@@H](C(=O)N[C@H](C#N)C[C@@H]2CCNC2=O)N(C(=O)c2cc3c(OC)cccc3[nH]2)C1` [Compound 409, (2S,4R)-N-[(1S)-1-cyano-2-[(3S)-2-oxopyrrolidin-3-yl]ethyl]-4-ethoxy-1-(4-methoxy-1H-indole-2-carbonyl)pyrrolidine-2-carboxamide] was tested, and the EC50 was > 30 µM. For `N#C[C@H](C[C@@H]1CCNC1=O)NC(=O)[C@H](CC1CC1)n1ccc2[nH]cnc2c1=O` [Compound 269, (2S)-N-[(1S)-1-cyano-2-[(3S)-2-oxopyrrolidin-3-yl]ethyl]-3-cyclopropyl-2-(4-oxo-3H-imidazo[4,5-c]pyridin-5-yl)propanamide], the EC50 was > 30 µM. In the case of `N#C[C@H](C[C@@H]1CCNC1=O)NC(=O)[C@H](CC1CC1)NC(=O)c1cc2ccc(Cl)cc2[nH]1` [Compound 529, 6-chloro-N-[(1S)-2-[[(1S)-1-cyano-2-[(3S)-2-oxopyrrolidin-3-yl]ethyl]amino]-1-(cyclopropylmethyl)-2-oxo-ethyl]-1H-indole-2-carboxamide], the EC50 is reported as < 2 µM. In the case of `CC1(C)CCC(C[C@@H](C#N)NC(=O)[C@H](CC2CC2)NC(=O)c2cc3cccc(Cl)c3[nH]2)C(=O)N1` (single isomer, unassigned) [Compound 749 (Isomer 2)], the EC50 is reported as 2 to 10 µM. In the case of `N#C[C@H](C[C@@H]1CCCNC1=O)NC(=O)[C@H](CC1CC1)NC(=O)c1cc2c(Cl)cccc2[nH]1` [Compound 812, 4-chloro-N-[(1S)-2-[[(1S)-1-cyano-2-[(3S)-2-oxo-3-piperidyl]ethyl]amino]-1-(cyclopropylmethyl)-2-oxo-ethyl]-1H-indole-2-carboxamide], the EC50 is reported as < 2 µM. In the case of `COc1cccc2[nH]c(C(=O)N[C@@H](CC(C)C)C(=O)N[C@@H](C[C@@H]3CCNC3=O)C(C#N)NC(C)(C)C)cc12` (single isomer, unassigned) [323 (Isomer 2)], the EC50 is reported as < 2 µM. In the case of `COCCOCCOc1cccc2[nH]c(C(=O)NC(CC(C)(C)C)C(=O)NC(C#N)CC3CCCNC3=O)cc12` (single isomer, unassigned) [875 (Isomer 3)], the EC50 is reported as 10 to 30 µM. For `COc1cccc2[nH]c(C(=O)N[C@H](C(=O)N[C@H](C#N)C[C@@H]3CCNC3=O)[C@@H]3Cc4ccccc4O3)cc12` [Compound 147, N-((S)-2-(((S)-1-cyano-2-((S)-2-oxopyrrolidin-3-yl)ethyl)amino)-1-((S)-2,3-dihydrobenzofuran-2-yl)-2-oxoethyl)-4-methoxy-1H-indole-2-carboxamide], the EC50 was > 30 µM. For `COc1cccc2[nH]c(C(=O)N[C@@H](CC(C)C)C(=O)N[C@@H](C[C@@H]3CCNC3=O)C(C#N)NC(C)(C)C)cc12` (single isomer, unassigned) [323 (Isomer 1)], the EC50 was < 2 µM. `N#C[C@H](C[C@@H]1CCCNC1=O)NC(=O)[C@H](CC1CC1)NC(=O)c1cc2c(F)cc(Cl)cc2[nH]1` [Compound 838, 6-chloro-N-[(1S)-2-[[(1S)-1-cyano-2-[(3S)-2-oxo-3-piperidyl]ethyl]amino]-1-(cyclopropylmethyl)-2-oxo-ethyl]-4-fluoro-1H-indole-2-carboxamide] was tested, and the EC50 was < 2 µM.

— patent US11524940B1, “Inhibitors of cysteine proteases and methods of use thereof” (priority 2020, dated 2022)
